In patent US20070274947A1, “Antisense Oligonucleotides Directed to Ribonucleotide Reductase R1 and Uses Thereof in the Treatment of Cancer” (priority 2003, published 2007):
Entries after “also recorded” stand apart in the source; their conditions may differ.

Legend:
R1 protein = test: Western blot of R1 protein in MDA-MB-231 cells; type: cell-based, human; settings: SEQ ID NO:1 0.025-0.2 μM, controls 0.2 μM
Procedure: MDA-MB-231 human breast adenocarcinoma cells were treated with increasing concentrations (0.025-0.2 μM) of SEQ ID NO:1, 0.2 μM of a scrambled control analogue of SEQ ID NO:1 (SEQ ID NO:1 Scr) or a mismatched control analogue of SEQ ID NO:1 (SEQ ID NO:1 Mis) that contains four base changes. Cells were then washed and fresh media were added. Cells were harvested 8-18 hours later for protein extractions. Aliquots of cell extracts were heated at 100° C. for 5 minutes and then analyzed on sodium dodecyl sulfate-polyacrylamide gels (Choy et al., 1988). Proteins were then transferred to membranes. Membranes were blocked and then incubated with anti-R1 antibody for 1 hour at room temperature. Membranes were washed three times in cold TBS-Tween buffer followed by incubation for 30 minutes to 1 hour at room temperature in the presence of a second antibody (goat anti-rabbit immunoglobulin linked with horseradish peroxidase). Blots were washed and bound antibodies were detected by development of the […] reaction (Fan et al., 1996).

[1] = Toxicokinetics in repeat dose (14-day and 21-day) continuous infusion studies in monkeys; settings: monkey
SK-OV-3 (ovary) = test: Colony forming ability, SK-OV-3; type: cell-based, human; settings: 0.2 μM antisense oligonucleotide/lipofectin, 4 hours
Procedure: (§1) The effect of SEQ ID NO:1 on the colony forming ability were evaluated in the following human tumor cell lines:
(§2) Tumor cells were washed in 5 ml of phosphate buffered saline, pH 7.2, prior to 0.2 μM antisense oligonucleotide/lipofectin treatment for 4 hours. The medium was removed and the cells were gently washed with 5 ml of growth medium. The cells were then cultured in growth medium for seven to ten days. Surviving colonies were visualized by methylene blue staining and colonies of 50 or more cells were scored (Choy et al., 1988 and Huang and Wright, 1994). Results are summarized from 4 to 8 trials for each tumor cell line.

[2] = test system: SIHA human cervical cancer cells; test: SIHA cervical tumor growth in SCID mice; type: in vivo
Procedure: SIHA human cervical cancer cells (1×10^7 cells in 100 μl of PBS) were subcutaneously injected into the right flank of 6-7 week old female SCID mice. After the size of tumor reached an approximate volume of 100 mm^3, 7 days post tumor cell injection, SEQ ID NO:1 was administered by bolus infusion into the tail vein every other day at 10 mg/kg. Control animals received saline alone for the same period. Treatments lasted for 16 days thereafter. Antitumor activities were estimated by the inhibition of tumor volume (FIG. 11A), which was measured with a caliper on five different occasions over 16-day period. Each point represents mean tumor volume calculated from 10 animals per experimental group.

A2058 (melanoma) = test: Colony forming ability, A2058; type: cell-based, human; settings: 0.2 μM antisense oligonucleotide/lipofectin, 4 hours
Procedure: as §1, §2

LS513 cells = test: LS513 multi-drug resistant colon adenocarcinoma growth in SCID mice; type: in vivo, human
Procedure: LS513 cells (1×10^7 cells in 100 μl of PBS) were subcutaneously injected into the right flank of 6-7 weeks old female SCID mice. After the size of tumor reached an approximate volume of 100 mm^3, 8 days post tumor cell injection, SEQ ID NO:1 was administered by bolus infusion into the tail vein every other day at 10 mg/kg. Control animals received saline alone for the same period. Antitumor effect of SEQ ID NO:1 was further compared to that of CPT-11. CPT-11 was administered i.p. for 5 days at a dose of 20 mg/kg/day. Antitumor activities were estimated by the inhibition of tumor volume, which was measured with calipers. Each point represents mean tumor volume calculated from 10 animals per experimental group (FIG. 16A). Tumor weights were measured after animals were sacrificed at the end of the treatment (FIGS. 16B and 16C). These cells are not resistant to CPT-11, which was used as a positive control.

[3] = 14-day continuous intravenous infusion toxicity study in the rat; type: in vivo, Sprague Dawley rats
[4] = Acute intravenous toxicity study in the monkey (24-hour infusion, escalating doses); type: in vivo, Cynomolgus monkeys
Procedure: The objective of this single, dose escalating study was to establish a maximum tolerated dose (MTD) for SEQ ID NO:1 and to assess the effect of administered SEQ ID NO:1 on the cardiac function of conscious Cynomolgus monkeys. […] There was a 3-day washout between doses. One female animal, administered vehicle only (PBS) in the same manner, was used as a control. Electrocardiogram (ECG) measurements were conducted on each animal (including control) prior to, during and after the end of each infusion interval. Clinical signs, mortality, body weight and food consumption measurements, hematology, coagulation and clinical chemistry parameter evaluations, were recorded and evaluated. In addition, blood samples were removed prior to and at the end of each infusion interval to measure complement (CH50 and Bb). Blood samples were also drawn at the end of each infusion for analysis of parent, SEQ ID NO:1.

R1 mRNA = R1 mRNA levels in HT-29 colon tumors in nude mice (Northern blot); type: in vivo, human; settings: day 16, 10 mg/kg every other day, two independent HT-29 tumors
Procedure: Effects of SEQ ID NO:1 administration on R1 mRNA levels in HT-29 colon tumors in nude mice were investigated.
For determination of mRNA levels in tumors by Northern Blot, total RNA was prepared from excised tumors using TRIzol reagent (GIBCO BRL). Northern blot analysis was performed as previously described (Hurta and Wright, 1995). RNA was subjected to electrophoresis through 1% formaldehyde agarose gels followed by transfer to nylon membranes. Blots were hybridized in the presence of a R1 fragment (McClarty et al, 1987). Glyceraldehyde-3-phosphate dehydrogenase (GAPDH) mRNA levels were simultaneously probed for RNA loading controls.
The results provide strong evidence that SEQ ID NO:1 is reaching the tumor site in vivo and is acting by an antisense mechanism of action.

Substance: 5′-CTCTAGCGTCTTAAAGCCGA-3′ (CTCTAGCGTCTTAAAGCCGA; chemistry not given here) [SEQ ID NO:1]
- R1 protein expression (R1 protein): specifically decreases R1 protein expression in a dose-dependent manner; also recorded: decreased R1 protein expression in a dose-dependent manner
- AUC estimates versus duration and dose ([1]; Part 1 and Part 2 Recovery animals): proportional with the duration of infusion and the administered dose level
- sex differences in toxicokinetic profile ([1]; Parts 1 and 2): no apparent sex-differences
- inhibition in colony forming ability (SK-OV-3 (ovary)): greater than 60%
- inhibition of tumor volume ([2]; 10 mg/kg i.v. every other day, 16 days, vs saline): strong inhibitory effects
- weight of excised tumors ([2]; end of treatments): strong antitumor effect
- inhibition in colony forming ability (A2058 (melanoma)): greater than 60%
- efficacy compared with CPT-11 (LS513 cells; CPT-11 20 mg/kg/day i.p. for 5 days): more effective than CPT-11
- tumor growth (volume, weight) (LS513 cells; SCID mice, 10 mg/kg i.v. every other day, vs saline): significant delay of tumor growth
- sex effect on adverse effects [3]: more pronounced in males than females
- treatment-related effects in the high dose group ([3]; 50 mg/kg/day (reduced to 40 mg/kg/day), 14-day infusion): severe adverse clinical signs and mortality; also recorded: high morbidity and mortality, reduced body weights and reduced food consumption
- clinical pathology results ([3]; 2, 10, 50 mg/kg/day, 14 days): dose-dependent anemia, thrombocytopenia, coagulopathic selectivity for APTT, and liver and kidney toxicity in both sexes
- pathological findings ([3]; 2, 10, 50 mg/kg/day, 14 days): major treatment-related changes in numerous tissues and organs of the high dose animals, in most tissues and organs of the mid dose animals; and sporadically in the evaluated tissues and organs of the low dose animals
- toxicity ([3]; continuously for 14 days at 10 mg/kg/day (59 mg/m^2/day)): Severe toxicity
- complement values ([4]; 80 mg/kg, one animal (female)): outside the normal range (higher Bb and lower CH50)
- ECG recordings and blood pressure ([4]; 10-80 mg/kg): no treatment-related effects
- deaths, clinical signs, body weight, food consumption ([4]; 24-hour infusions of 10, 20, 40 and 80 mg/kg): no deaths, clinical signs, body weight changes, or effects on food consumption
- plasma concentrations at the end of infusion ([4]; escalating doses 10-80 mg/kg): increased with escalating dose levels
- activated partial thromboplastin times ([4]; following the last dose (Day 14), all values within normal ranges): apparent increasing trend
- complement Bb and CH50 values ([4]; up to 40 mg/kg): within the reference range
- R1 mRNA levels in tumors (R1 mRNA): marked reduction; also recorded: decreased R1 mRNA levels
